Experimental findings from article PMC3401096 (Molecular Biosystems, 2009) are described below.

Test [1] concerns the target T1, JMJD2E (Homo sapiens, UniProt B2RXH2).
T1 sequence (B2RXH2 1-337): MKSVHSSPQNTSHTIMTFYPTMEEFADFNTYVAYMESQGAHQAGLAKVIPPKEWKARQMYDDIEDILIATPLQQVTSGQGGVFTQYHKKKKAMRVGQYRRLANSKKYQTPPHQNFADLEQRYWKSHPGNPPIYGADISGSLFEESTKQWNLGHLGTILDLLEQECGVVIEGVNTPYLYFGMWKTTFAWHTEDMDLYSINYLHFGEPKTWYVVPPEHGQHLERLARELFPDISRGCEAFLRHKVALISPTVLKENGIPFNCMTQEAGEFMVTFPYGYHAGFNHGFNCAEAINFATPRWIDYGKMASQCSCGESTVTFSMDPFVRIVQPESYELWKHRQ
As to the kind of experiment: biochemical.

Test [2] deals with T1, JMJD2E. Description: miniaturized 1,536-well FDH-coupled JMJD2E qHTS assay. The test is classed as biochemical. In general terms: Quantitative high-throughput screening tests each substance at several concentrations.
In test [3] the target is T1, JMJD2E.
In test [4] the target is T1, JMJD2E. Description: kinetic analysis of the mode of inhibition of JMJD2E with respect to 2OG. It counts as biochemical.

For orientation: IC50 means the concentration at which inhibition is half-maximal. A low value points to higher potency.

Structures can show the parent of a compound that is named as a salt. Where two headings read alike, the source gives them in different places.

As to `Oc1cc2c(cc1O)[C@@H]1c3ccc(O)c(O)c3OC[C@]1(O)C2` [hematoxylin], the 50% inhibitory concentration (IC50) in test [1] came to 3.4 µM; in test [2], 2 µM.
In test [3], `C[C@](N)(Cc1ccc(O)c(O)c1)C(=O)O` [L-Methyldopa] had an IC50 of 6.1 µM.
Turning to `Oc1ccc(C2CNCCc3c2cc(O)c(O)c3Cl)cc1` (stereo not shown) [Fenoldopam bromide], the IC50 in test [1] worked out at 10.1 µM; in test [2], 7.9 µM.
In the same order, the values of `CC1(C)CCC2=C(O1)c1ccccc1C(=O)C2=O` [beta-Lapachone] are 8.4 µM and 3.6 µM.
Regarding `NCCc1ccc(O)c(O)c1` [Dopamine hydrochloride], the IC50 was 2.2 µM in test [1] and 7.1 µM in test [2].
Take `O=C(O[C@@H]1Cc2c(O)cc(O)cc2O[C@@H]1c1cc(O)c(O)c(O)c1)c1cc(O)c(O)c(O)c1` [Epigallocatechin gallate]: in test [3], half-maximal inhibition (IC50) required 3 µM.
For the molecule S(−)-Carbidopa, the “mode of inhibition of JMJD2E with respect to 2OG” value in test [4] was “uncompetitive”. The αKi in test [4] (uncompetitive with respect to 2OG) was determined as 1.98 ± 0.17. In test [3], this molecule gave a half-maximal inhibitory concentration (IC50) of 7.5 µM.
Regarding `NCCc1cc(O)c(O)cc1O` [Oxidopamine Hydrochloride], the concentration for half-maximal inhibition (IC50) stood at 12.2 µM in test [1] and 4 µM in test [2].
With `Oc1cc(O)c2c(c1)O[C@H](c1cc(O)c(O)c(O)c1)[C@H](O)C2` [Epigallocatechin], in test [2], the midpoint of inhibition, the IC50, lay at 5 µM.
As to `O=c1cc(-c2ccccc2)oc2cc(O)c(O)c(O)c12` [Baicalein], the values for the IC50 in test [1] and in test [2] were 4.5 µM and 4 µM, respectively. In addition, in test [4], the “mode of inhibition of JMJD2E with respect to 2OG” value is “noncompetitive”.
